In US12162858B2, “Quinoline derivatives as inhibitors of AXL/MER RTK and CSF1R” (QURIENT CO., LTD., priority 2018, dated 2024):
Where two headings read alike, the source gives them in different places.

Experiments:
[1] = target: T1, CSF1R (Homo sapiens, UniProt P07333); experiment: Cellular CSF1R inhibition ELISA (p-CSF1R, M-CSF-induced) using THP-1 cells; type: cell-based; design: THP-1 cells act as a model for human monocytes; endogenous in cells; host or cells: THP-1
Source text: The normal proto-oncogene c-fms encodes the macrophage growth factor (M-CSF, also known as CSF1) receptor involved in growth, survival, and differentiation along the monocyte-macrophage lineage. THP-1 cells act as a model for human monocytes. It confirms that an increased phosphorylation of CSF1R (p-CSF1R) can be observed, when induced by CSF1R ligand, CSF1.
The THP-1 cells should be maintained from 5×10^5 to 1×10^6 cells/ml in the cell culture flask. After centrifugation, the supernatant is aspirated. The cell pellet is re-suspended with pre-warmed growth medium (RPMI1640, 10% FBS, 0.05 mM 2-Mercaptoethanol) and cells are separated by pipetting 6 times up and down with a 10 ml serological pipette. The cell suspension has to be diluted to a final concentration of 2×10^5 cells per 80 μl with pre-warmed growth medium. 80 μl of cell suspension is added to all wells of plates. Cell-plates are incubated at 37° C./5% CO2. Dissolve compound in 100% DMSO to make 10 mM stock solutions (Aliquots stored in the Nitrogen Cabinet). Dilute 10 mM compounds solutions for 2-fold in 100% DMSO to get 5 mM solutions (10 μl+10 μl DMSO), and then make a 3-fold serial dilution (10 μl+20 μl DMSO) for 10 doses. For reference compounds: Dilute 10 mM compounds solutions for 20-fold in 100% DMSO to get 0.5 mM solutions (2 μl+38 μl DMSO), and then make a 3-fold serial dilution (10 μl+20 μl DMSO) for 10 doses. Transfer 2 μl diluted compounds to 198 μl medium to get solution of 50 μM concentration at top point for compounds and 5 μM for reference compounds. Then transfer 20 μl cpd solution into assay plate (Duplicate wells). The plate is incubated at 37° C./5% CO2 for 24 h. The final concentration of DMSO in all wells is […]. Reconstitute human M-CSF at 50 μg/ml in sterile water. (Aliquots stored in −80° C.). 1:1000 dilute human M-CSF by fresh medium to 50 ng/ml. After 24 h compounds treatment, transfer 25 μl diluted human M-CSF (50 ng/ml) to cell plate according to the plate map. The final concentration of human M-CSF in all wells is 10 ng/ml.
The plates is incubated at 37° C./5% CO2 for 5 min. In the beginning the appropriate amount of lysis buffer complete (100 μL/well) is prepared and stored on ice. After 5 min human M-CSF stimulation, wash plates once with 300 μL ice cold PBS. Then 100 μl lysis buffer is added to each well. The plate is shacked for 40 min at 4° C. Plates can now be stored at −20° C. After equilibrate the micro-well strips at room temperature, break off the required number of micro-wells. Place the micro-wells in the strip holder. Unused micro-wells must be resealed and stored at 4° C. immediately. Add 90 μl of cell lysate to the appropriate well. Seal with tape and press firmly onto top of micro-wells. Incubate the plate for 2 h at 37° C. Gently remove the tape and wash wells 4 times with 1× Wash Buffer, 200 μl each time for each well. Add 100 μl of reconstituted Detection Antibody (green color) to each well. Seal with tape and incubate the plate at 37° C. for 1 h. Repeat wash procedure. Add 100 μl of reconstituted HRP-Linked secondary antibody to each well. Seal with tape and incubate the plate for 30 min at 37° C. Repeat wash procedure. Add 100 μl of TMB Substrate to each well. Seal with tape and incubate the plate for 10 min at 37° C. or 30 min at 25° C. Calculations and Formulas: The following calculations and formulas are used for data analysis using XL Fit software: The curve fitting was made using the Sigmoidal Dose-Response Model (Fit model, 205).

[2] = target: T1, CSF1R; experiment: KINOMEscan competition binding assay for CSF1R; design: DNA tag for qPCR (not a peptide); host or cells: E. coli/T7 phage or HEK-293; conditions: for Kd: read-out: CSF1R kinase binding activity (Kd)
Method: KINOMEscan™ is based on a competition binding assay that quantitatively measures the ability of a compound to compete with an immobilized, active-site directed ligand. The assay is performed by combining three components: DNA-tagged kinase; immobilized ligand; and a test compound. The ability of the test compound to compete with the immobilized ligand is measured via quantitative PCR of the DNA tag.
E. coli were grown to log-phase and infected with T7 phage and incubated with shaking at 32° C. until lysis. The lysates were centrifuged and filtered to remove cell debris. The remaining kinases were produced in HEK-293 cells and subsequently tagged with DNA for qPCR detection. Streptavidin-coated magnetic beads were treated with biotinylated small molecule ligands for 30 minutes at room temperature to generate affinity resins for kinase assays. The liganded beads were blocked with excess biotin and washed with blocking buffer (SeaBlock (Pierce), 1% BSA, 0.05% Tween 20, 1 mM DTT) to remove unbound ligand and to reduce non-specific binding. Binding reactions were assembled by combining kinases, liganded affinity beads, and test compounds in 1× binding buffer (20% SeaBlock, 0.17×PBS, 0.05% Tween 20, 6 mM DTT). Test compounds were prepared as 111× stocks in 100% DMSO. Kds were determined using an 11-point 3-fold compound dilution series with three DMSO control points. All compounds for Kd measurements are distributed by acoustic transfer (non-contact dispensing) in 100% DMSO. The compounds were then diluted directly into the assays such that the final concentration of DMSO was 0.9%. In case of % inhibition, test compounds were prepared as 40× stocks in 100% DMSO and directly diluted into the assay. All reactions performed in polypropylene 384-well plate. Each was a final volume of 0.02 ml. The assay plates were incubated at room temperature with shaking for 1 hour and the affinity beads were washed with wash buffer (1×PBS, 0.05% Tween 20). The beads were then re-suspended in elution buffer (1×PBS, 0.05% Tween 20, 0.5 μM non-biotinylated affinity ligand) and incubated at room temperature with shaking for 30 minutes. The kinase concentration in the eluates was measured by qPCR.
The CSF1R kinase binding activity results are shown in tables 1 (Kd) and 2 (percent inhibition at a concentration of 0.1 uM of compound to be tested).
Binding constants (Kds) were calculated with a standard dose-response curve using the Hill equation: […]
The Hill Slope was set to −1.
Curves were fitted using a non-linear least square fit with the Levenberg-Marquardt algorithm.
Binding % inhibition were calculated with as below:
[formula] • negative control=DMSO (100% Ctrl) • positive control=control compound (0% Ctrl)

[3] = read-out: CSF1R kinase binding activity, Percent (%) inhibition
[4] = read-out: CSF1R kinase binding activity, Range

T1 sequence (P07333 20-972): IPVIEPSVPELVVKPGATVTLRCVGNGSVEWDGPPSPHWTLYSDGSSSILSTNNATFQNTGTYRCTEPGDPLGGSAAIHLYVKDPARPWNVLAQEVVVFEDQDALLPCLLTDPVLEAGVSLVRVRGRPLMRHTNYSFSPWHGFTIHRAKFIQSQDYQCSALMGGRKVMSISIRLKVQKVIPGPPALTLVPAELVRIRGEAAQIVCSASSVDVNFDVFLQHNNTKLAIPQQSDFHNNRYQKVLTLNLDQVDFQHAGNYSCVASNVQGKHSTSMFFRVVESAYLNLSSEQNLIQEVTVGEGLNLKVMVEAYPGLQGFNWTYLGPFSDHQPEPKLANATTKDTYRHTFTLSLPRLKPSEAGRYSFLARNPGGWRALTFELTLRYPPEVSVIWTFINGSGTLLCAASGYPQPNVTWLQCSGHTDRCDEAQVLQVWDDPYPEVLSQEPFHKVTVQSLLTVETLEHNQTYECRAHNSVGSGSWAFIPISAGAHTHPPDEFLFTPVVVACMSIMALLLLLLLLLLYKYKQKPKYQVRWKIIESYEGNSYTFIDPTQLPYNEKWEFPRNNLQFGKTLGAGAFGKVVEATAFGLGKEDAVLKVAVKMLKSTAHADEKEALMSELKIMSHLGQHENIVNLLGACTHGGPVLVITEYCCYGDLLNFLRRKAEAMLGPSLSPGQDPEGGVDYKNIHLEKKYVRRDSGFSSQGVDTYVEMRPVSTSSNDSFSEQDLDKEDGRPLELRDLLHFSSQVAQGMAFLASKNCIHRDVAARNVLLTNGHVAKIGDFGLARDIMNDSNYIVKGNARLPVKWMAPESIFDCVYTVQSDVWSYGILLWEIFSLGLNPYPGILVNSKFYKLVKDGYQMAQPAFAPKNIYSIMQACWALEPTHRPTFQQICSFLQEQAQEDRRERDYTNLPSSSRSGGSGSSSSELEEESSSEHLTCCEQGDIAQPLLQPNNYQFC

CCn1cc(OCC(F)(F)F)c(C(=O)Nc2ccc(Oc3ccnc4cc(OC)c(OC)cc34)cn2)n1 [Compound 4]
IC50 [1]: < 500 nM
inhibition at 0.1 µM [2, 3]: 98%
inhibition at 0.1 µM [2, 4]: ≥ 80%
Kd [2]: < 100 nM

CCn1cc(OC(C)C)c(C(=O)Nc2ccc(Oc3ccnc4cc(OC)c(OC)cc34)cn2)n1 [Compound 6]
IC50 [1]: < 500 nM
inhibition at 0.1 µM [2, 3]: 97%
inhibition at 0.1 µM [2, 4]: ≥ 80%
Kd [2]: < 100 nM

CCCn1cc(OCC(F)(F)F)c(C(=O)Nc2ccc(Oc3ccnc4cc(OC)c(OC)cc34)cn2)n1 [Compound 7]
IC50 [1]: < 500 nM
inhibition at 0.1 µM [2, 3]: 97%
inhibition at 0.1 µM [2, 4]: ≥ 80%
Kd [2]: < 100 nM

CCn1cc(OCC2CCC2)c(C(=O)Nc2ccc(Oc3ccnc4cc(OC)c(OC)cc34)cn2)n1 [Compound 8]
IC50 [1]: < 500 nM
inhibition at 0.1 µM [2, 3]: 94%
inhibition at 0.1 µM [2, 4]: ≥ 80%
Kd [2]: < 100 nM

COc1cc2nccc(Oc3ccc(NC(=O)c4nn(CCN(C)C)cc4OCC(F)(F)F)nc3)c2cc1OC [Compound 9]
IC50 [1]: < 500 nM
inhibition at 0.1 µM [2, 3]: 92%
inhibition at 0.1 µM [2, 4]: ≥ 80%
Kd [2]: < 100 nM

COCCn1cc(OCC(F)(F)F)c(C(=O)Nc2ccc(Oc3ccnc4cc(OC)c(OC)cc34)cn2)n1 [Compound 10]
IC50 [1]: < 500 nM
inhibition at 0.1 µM [2, 3]: 98%
inhibition at 0.1 µM [2, 4]: ≥ 80%
Kd [2]: < 100 nM

CNCCn1cc(OCC(F)(F)F)c(C(=O)Nc2ccc(Oc3ccnc4cc(OC)c(OC)cc34)cn2)n1 [Compound 11]
IC50 [1]: 500 to 1000 nM
inhibition at 0.1 µM [2, 3]: 88%
inhibition at 0.1 µM [2, 4]: ≥ 80%
Kd [2]: < 100 nM

CCCn1cc(OCC(F)F)c(C(=O)Nc2ccc(Oc3ccnc4cc(OC)c(OC)cc34)cn2)n1 [Compound 12]
IC50 [1]: < 500 nM
inhibition at 0.1 µM [2, 3]: 98%
inhibition at 0.1 µM [2, 4]: ≥ 80%
Kd [2]: < 100 nM

COc1cc2nccc(Oc3ccc(NC(=O)c4n[nH]cc4OCC(F)(F)F)nc3)c2cc1OC [Compound 16]
IC50 [1]: < 500 nM
inhibition at 0.1 µM [2, 3]: 99%
inhibition at 0.1 µM [2, 4]: ≥ 80%

COc1cc2nccc(Oc3ccc(NC(=O)c4nn(CC5COC5)cc4OCC(F)(F)F)nc3)c2cc1OC [Compound 92]
IC50 [1]: < 500 nM
inhibition at 0.1 µM [2, 3]: 100%
inhibition at 0.1 µM [2, 4]: ≥ 80%

COc1cc2nccc(Oc3ccc(NC(=O)c4nn(C5CCN(C)C5)cc4OCC(F)(F)F)cc3F)c2cc1OC (centres unmarked) [Compound 96]
IC50 [1]: ≥ 1000 nM
inhibition at 0.1 µM [2, 3]: 57%
inhibition at 0.1 µM [2, 4]: 50 to 80%

COc1cc2nccc(Oc3ccc(NC(=O)c4nn(CC5COC5)cc4OCC(F)(F)F)cc3F)c2cc1OC [Compound 97]
IC50 [1]: ≥ 1000 nM
inhibition at 0.1 µM [2, 3]: 56%
inhibition at 0.1 µM [2, 4]: 50 to 80%

COc1cc2nccc(Oc3ccc(NC(=O)c4nn(C5CCN(C)C5)cc4OCC(F)(F)F)cc3C)c2cc1OC (centres unmarked) [Compound 98]
IC50 [1]: ≥ 1000 nM
inhibition at 0.1 µM [2, 3]: 60%
inhibition at 0.1 µM [2, 4]: 50 to 80%

COc1cc2nccc(Oc3ccc(NC(=O)c4nn(CC5COC5)cc4OCC(F)(F)F)cc3C)c2cc1OC [Compound 99]
IC50 [1]: 500 to 1000 nM
inhibition at 0.1 µM [2, 3]: 94%
inhibition at 0.1 µM [2, 4]: ≥ 80%

COc1cc2nccc(Oc3ccc(NC(=O)c4nn(C5CCN(C)C5)cc4OCC(F)(F)F)cc3)c2cc1OC (centres unmarked) [Compound 100]
IC50 [1]: ≥ 1000 nM
inhibition at 0.1 µM [2, 3]: 36%
inhibition at 0.1 µM [2, 4]: < 50%

COc1cc2nccc(Oc3ccc(NC(=O)c4nn(CC5COC5)cc4OCC(F)(F)F)cc3)c2cc1OC [Compound 101]
IC50 [1]: ≥ 1000 nM
inhibition at 0.1 µM [2, 3]: 45%
inhibition at 0.1 µM [2, 4]: < 50%

COc1cc2nccc(Oc3ccc(NC(=O)c4nn(C)cc4OCC(F)(F)F)nn3)c2cc1OC [Compound 102]
IC50 [1]: < 500 nM
inhibition at 0.1 µM [2, 3]: 87%
inhibition at 0.1 µM [2, 4]: ≥ 80%

COc1cc2nccc(Oc3ccc(NC(=O)c4nn(CC(C)C)cc4OCC(F)(F)F)cn3)c2cc1OC [Compound 103]
IC50 [1]: ≥ 1000 nM
inhibition at 0.1 µM [2, 3]: 29%
inhibition at 0.1 µM [2, 4]: < 50%

COCCn1cc(OCC(F)(F)F)c(C(=O)Nc2ccc(Oc3ccnc4cc(OC)c(OC)cc34)nc2)n1 [Compound 104]
IC50 [1]: ≥ 1000 nM
inhibition at 0.1 µM [2, 3]: 46%
inhibition at 0.1 µM [2, 4]: < 50%

CCCn1cc(OCCOC)c(C(=O)Nc2ccc(Oc3ccnc4cc(OC)c(OC)cc34)cn2)n1 [Compound 105]
IC50 [1]: < 500 nM
inhibition at 0.1 µM [2, 3]: 91%
inhibition at 0.1 µM [2, 4]: ≥ 80%

CCCn1cc(OCC2COC2)c(C(=O)Nc2ccc(Oc3ccnc4cc(OC)c(OC)cc34)cn2)n1 [Compound 106]
IC50 [1]: < 500 nM
inhibition at 0.1 µM [2, 3]: 95%
inhibition at 0.1 µM [2, 4]: ≥ 80%

COCCOc1cn(C2CC2)nc1C(=O)Nc1ccc(Oc2ccnc3cc(OC)c(OC)cc23)cn1 [Compound 107]
IC50 [1]: < 500 nM
inhibition at 0.1 µM [2, 3]: 90%
inhibition at 0.1 µM [2, 4]: ≥ 80%

COc1cc2nccc(Oc3ccc(NC(=O)c4nn(C5CC5)cc4OC(C)C)nc3)c2cc1OC [Compound 108]
IC50 [1]: < 500 nM
inhibition at 0.1 µM [2, 3]: 96%
inhibition at 0.1 µM [2, 4]: ≥ 80%

COc1cc2nccc(Oc3ccc(NC(=O)c4nn(C5CC5)cc4OCC(F)F)nc3)c2cc1OC [Compound 109]
IC50 [1]: < 500 nM
inhibition at 0.1 µM [2, 3]: 98%
inhibition at 0.1 µM [2, 4]: ≥ 80%

COc1cc2nccc(Oc3ccc(NC(=O)c4nn(C5CC5)cc4OCCF)nc3)c2cc1OC [Compound 110]
IC50 [1]: < 500 nM
inhibition at 0.1 µM [2, 3]: 98%
inhibition at 0.1 µM [2, 4]: ≥ 80%

COc1cc2nccc(Oc3ccc(NC(=O)c4nn(C5CC5)cc4OCC4CCC4)nc3)c2cc1OC [Compound 111]
IC50 [1]: 500 to 1000 nM
inhibition at 0.1 µM [2, 3]: 89%
inhibition at 0.1 µM [2, 4]: ≥ 80%
